In US4370337A, “1,2,4-Triazole derivatives as antifertility agents and pharmaceutical compositions containing them” (Gruppo Lepetit S.p.A., priority 1980, dated 1983):

Assays:
[1] = test system: hamsters; assay: Post-coital antifertility activity in mated hamsters, oral route; assay type: in vivo, Syrian golden hamster; conditions: for reduction of live fetuses: oral, 20 mg/Kg, hamsters
Description: (§1) Representative experiments for assessing antifertility activity were carried out with female Syrian golden hamsters weighing 100 to 130 g. The animals were mated and the presence of sperm in the vagina was taken as evidence of mating. The day sperm was detected was considered day one of pregnancy, since in our laboratory and those of other investigators 90 to 100% of animals that mate as evidenced by vaginal sperm are pregnant.
(§2) Pregnancy was later confirmed at the time of autopsy by presence of fetuses or implantation sites in the uterus.
(§3) Even if an animal aborts the fetus, implantation scars still remain as evidence that the animal has been pregnant.
The animals were autopsied on day 14 of pregnancy and the uteri were examined for evidence of pregnancy (implantation sites, fetal resorptions or live fetuses), hemorrage, and evidence of abnormalities of the uterus, placenta or fetuses. A compound was considered to be active if there was a reduction of live fetuses in at least 60% of the treated animals and the presence of implantation sites proves the animal to have been pregnant. […] The compounds were then studied for dose-activity relationships and the corresponding ED50 values i.e., 100% activity (absence of live fetuses) in 50% of the animals, were also determined. The following table reports the ED50 values of some representative compounds of the invention:
Favorable results were also obtained by administering the compounds of the invention by oral route. The experiments for assessing this property were carried out on hamsters following the same procedure as above, with the obvious exception that the compounds were adminstered orally instead of subcutaneously.

[2] = test system: female Syrian golden hamsters; assay: Post-coital antifertility activity in mated hamsters, subcutaneous (autopsy on day 14: implantation sites, live fetuses); assay type: in vivo, Syrian golden hamster; conditions: for ED50: Mesocricetus auratus, sc, s.c. hamsters, days 4-8 of pregnancy, read-out: ED50 (100% activity, i.e. absence of live fetuses, in 50% of the animals); for antifertility activity (active according to the criteria): s.c. in sesame oil, 10 mg/kg daily for 5 days (days 4-8 of pregnancy), hamsters
Description: as §1, §2, §3
The animals were autopsied on day 14 of pregnancy and the uteri were examined for evidence of pregnancy (implantation sites, fetal resorptions or live fetuses), hemorrage, and evidence of abnormalities of the uterus, placenta or fetuses.

Structure (SMILES)	reduction of live fetuses [1]	ED50 [2]	antifertility activity (active according to the criteria) [2]	ED50 ([1]; Mesocricetus auratus, po, p.o. hamsters, read-out: ED50 (100% activity, i.e. absence of live fetuses, in 50% of the animals))
COc1cccc(-c2nc(-c3ccccc3C=O)n[nH]2)c1 [Example 3, 2-[5-(3-methoxyphenyl)-1H-1,2,4-triazol-3yl]benzaldehyde]	60%	0.1 mg/kg	active	–
COc1cccc(-c2n[nH]c(-c3ccccc3CO)n2)c1 [Example 1, 5-(2-hydroxymethylphenyl)-3-(3-methoxyphenyl)-1H-,1,2,4-triazole]	60%	0.08 mg/kg	active	10 mg/kg
